What is called IC50 is the concentration at which inhibition is half-maximal. Low readings indicate higher potency, high ones lower potency.

Common to all, as to format: cell-based
Test [1] concerns SDH-A (succinate dehydrogenase-A). The experiment in a line: Mitochondria toxicity assay with PC3 cells, in-cell ELISA SDH-A. Particulars: 5 days treatment. In short, it runs like this: (§1)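 This in-cell ELISA was run on fixed, permeabilized PC3 cells after 5-day exposure to titrated compound, with cytotoxicity measured on a duplicate plate. Results are reported as categories A (<1.0 μM) to E (>100.0 μM).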
For orientation: In an ELISA, binding on a coated surface is turned into a signal by an enzyme label.

In a further test the test system is THP1-Dual KO-TREX1 cells. The experiment in a line: THP1 TREX1 KO inhibition assay (type 1 interferon response). Particulars: Homo sapiens, 144 h, type 1 interferon (QUANTI-LUC), 1 μM 5-aza-2′-deoxycytidine, six days. In short, it runs like this:
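THP1-Dual KO-TREX1 cells were treated with a dose titration of compound, alone or with 1 μM 5-aza-2′-deoxycytidine, for six days at 37 °C. Type 1 interferon was read as secreted luciferase (QUANTI-LUC) in the supernatant, and viability by CellTiter-Glo luminescence.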

Test [2] is described as follows: Mitochondria toxicity assay with PC3 cells, in-cell ELISA COX-1. Particulars: 5 days treatment. In short, it runs like this:
as §1

Another test deals with PC3 cells. The experiment in a line: Mitochondria toxicity assay with PC3 cells, cytotoxicity (Cell Titer Glo). Particulars: Homo sapiens, PC-3, 120 h, 5 days treatment. In short, it runs like this: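 Cytotoxicity reported in μM bins, A <1.0 through E >100.0. Measured via Cell Titer Glo luminescence (30 min, room temperature) after 5-day dose-titration treatment of PC3 cells, grown in F-12K/10% FBS, at 37° C, 5% CO2.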
Background: ATP-based viability assays read luminescence as a measure of living cells.

For `C=C[C@]1(CO)O[C@@H](n2cc(F)c(N)nc2=O)[C@@H](O)[C@@H]1O` [Compound 75, 4-amino-1-((2R,3S,4S,5R)-3,4-dihydroxy-5-(hydroxymethyl)-5-vinyltetrahydrofuran-2-yl)-5-fluoropyrimidin-2(1H)-one], the IC50 is more than 100 µM in test [1], more than 1 µM with THP1-Dual KO-TREX1 cells, more than 100 µM in test [2] and more than 100 µM in the test on PC3 cells.

On to `C#C[C@]1(CO)O[C@@H](n2cc(C)c(=O)[nH]c2=O)C[C@@H]1O` [Compound 38, 1-((2R,4S,5R)-5-ethynyl-4-hydroxy-5-(hydroxymethyl)tetrahydrofuran-2-yl)-5-methylpyrimidine-2,4(1H,3H)-dione], for which the IC50 in test [1] is more than 100 µM; in the test with THP1-Dual KO-TREX1 cells, more than 1 µM; in test [2] it was more than 100 µM; in the test on PC3 cells, more than 100 µM.

Take `C#C[C@]1(CO)O[C@@H](n2cc(F)c(N)nc2=O)C[C@@H]1O` [Compound 107, 4-amino-1-((2R,4S,5R)-5-ethynyl-4-hydroxy-5-(hydroxymethyl)tetrahydro-furan-2-yl)-5-fluoropyrimidin-2(1H)-one]: the IC50 in test [1] was more than 100 µM; in the test on THP1-Dual KO-TREX1 cells, more than 1 µM; in test [2], more than 100 µM; in the test on PC3 cells, more than 100 µM.

For `CC[C@]1(CO)O[C@@H](n2cnc3c(=O)[nH]c(N)nc32)[C@@H](F)[C@@H]1O` [Compound 68, 2-amino-9-((2R,3S,4R,5R)-5-ethyl-3-fluoro-4-hydroxy-5-(hydroxymethyl)tetrahydrofuran-2-yl)-1,9-dihydro-6H-purin-6-one], the IC50 in test [1] was 10 to 50 µM; in the test on THP1-Dual KO-TREX1 cells, more than 1 µM; in test [2], 10 to 50 µM; in the test on PC3 cells, 10 to 50 µM.

In the case of `Nc1ccn([C@@H]2O[C@@](CO)(CCl)[C@@H](O)[C@@H]2O)c(=O)n1` [Compound 114, 4-amino-1-((2R,3S,4S,5R)-5-(chloromethyl)-3,4-dihydroxy-5-(hydroxymethyl)tetrahydro-furan-2-yl)pyrimidin-2(1H)-one], the IC50 in test [1] was more than 100 µM; in the test on THP1-Dual KO-TREX1 cells, more than 1 µM; in test [2], more than 100 µM; in the test with PC3 cells, more than 100 µM.

Regarding `CC[C@]1(CO)O[C@@H](n2cc(F)c(N)nc2=O)C[C@@H]1O` [Compound 82, 4-amino-1-((2R,4S,5R)-5-ethyl-4-hydroxy-5-(hydroxymethyl)-tetrahydrofuran-2-yl)-5-fluoropyrimidin-2(1H)-one], the IC50 in test [1] is more than 100 µM; in the test on THP1-Dual KO-TREX1 cells, more than 1 µM; in test [2] it was more than 100 µM; in the test on PC3 cells, more than 100 µM.

Turning to `O=c1[nH]c(=O)n([C@@H]2O[C@@](CO)(CCO)[C@@H](O)[C@@H]2F)cc1F` [Compound 179, 5-fluoro-1-((2R,3S,4R,5R)-3-fluoro-4-hydroxy-5-(2-hydroxyethyl)-5-(hydroxymethyl)tetrahydrofuran-2-yl) pyrimidine-2,4(1H,3H)-dione], the IC50 in test [1] was more than 100 µM; with THP1-Dual KO-TREX1 cells, more than 1 µM; in test [2], more than 100 µM; in the test on PC3 cells, more than 100 µM.

Turning to `[2H]C([2H])(Cl)[C@]1(CO)O[C@@H](n2cc(F)c(N)nc2=O)[C@@H](F)[C@@H]1O` [Compound 175, 4-amino-1-((2R,3S,4R,5R)-5-(chloromethyl-d2)-3-fluoro-4-hydroxy-5-(hydroxymethyl)tetrahydrofuran-2-yl)-5-fluoropyrimidin-2(1H)-one], the IC50 in test [1] was more than 100 µM; in the test on THP1-Dual KO-TREX1 cells, 0.25 to 1 µM; in test [2], more than 100 µM; with PC3 cells, more than 100 µM.

As to `C=C[C@]1(CO)O[C@@H](n2cc(F)c(N)nc2=O)[C@@H](F)[C@@H]1O` [Compound 76, 4-amino-1-[(2R,3S,4R,5R)-5-ethenyl-3-fluoro-4-hydroxy-5-(hydroxymethyl)oxolan-2-yl]-5-fluoropyrimidin-2-one], the IC50 in test [1] was 1 to 10 µM; in the test on THP1-Dual KO-TREX1 cells, more than 1 µM; in test [2], 1 to 10 µM; in the test on PC3 cells, more than 100 µM.

On to `Nc1ccn([C@@H]2O[C@H](CO)[C@@H](O)C2(F)F)c(=O)n1` [Compound 111, 4-amino-1-((2R,4R,5R)-3,3-difluoro-4-hydroxy-5-(hydroxymethyl)tetrahydro-furan-2-yl)pyrimidin-2(1H)-one], for which the IC50 is less than 1 µM in test [1], 0.05 to 0.1 µM in the test with THP1-Dual KO-TREX1 cells, less than 1 µM in test [2] and less than 1 µM with PC3 cells.

With `Cc1cn([C@H]2C[C@H](F)[C@@](C)(CO)O2)c(=O)[nH]c1=O` [Compound 180, 1-((2R,4S,5R)-4-fluoro-5-(hydroxymethyl)-5-methyltetrahydrofuran-2-yl)-5-methylpyrimidine-2,4(1H,3H)-dione], the IC50 in test [1] was more than 100 µM; with THP1-Dual KO-TREX1 cells it was more than 1 µM; in test [2], more than 100 µM; in the test on PC3 cells it was more than 100 µM.

Take `Nc1nc(=O)n([C@H]2C[C@H](O)[C@](CO)(C(F)F)O2)cc1F` [Compound 65, 4-amino-1-[(2R,4S,5R)-5-(difluoromethyl)-4-hydroxy-5-(hydroxymethyl)oxolan-2-yl]-5-fluoropyrimidin-2-one]: the IC50 was more than 100 µM in test [1], 0.25 to 1 µM in the test on THP1-Dual KO-TREX1 cells, more than 100 µM in test [2] and more than 100 µM in the test on PC3 cells.

As for `CCC[C@]1(CO)O[C@@H](n2ccc(N)nc2=O)C[C@@H]1O` [Compound 60, 4-amino-1-((2R,4S,5R)-4-hydroxy-5-(hydroxymethyl)-5-propyltetrahydrofuran-2-yl)pyrimidin-2(1H)-one], the IC50 in test [1] was more than 100 µM; in the test on THP1-Dual KO-TREX1 cells, more than 1 µM; in test [2], more than 100 µM; in the test on PC3 cells, more than 100 µM.

`CC[C@]1(CO)O[C@@H](n2cnc3c(N)nc(F)nc32)C[C@@H]1O` [Compound 64, (2R,3S,5R)-5-(6-amino-2-fluoro-9H-purin-9-yl)-2-ethyl-2-(hydroxymethyl)tetrahydrofuran-3-ol]: the IC50 was less than 1 µM in test [1], more than 1 µM in the test with THP1-Dual KO-TREX1 cells, less than 1 µM in test [2] and less than 1 µM in the test on PC3 cells.

On to `C=CCC1(CO)O[C@@H](n2ccc(N)nc2=O)C[C@@H]1O` (stereo partly drawn) [Compound 56, 1-((2R,4S)-5-allyl-4-hydroxy-5-(hydroxymethyl)tetrahydrofuran-2-yl)-4-aminopyrimidin-2(1H)-one], for which the IC50 was more than 100 µM in test [1], more than 1 µM in the test with THP1-Dual KO-TREX1 cells, more than 100 µM in test [2] and more than 100 µM with PC3 cells.

Take `C=C[C@]1(CO)O[C@@H](n2cc(F)c(N)nc2=O)C[C@@H]1O` [Compound 74, 4-amino-5-fluoro-1-((2R,4S,5R)-4-hydroxy-5-(hydroxymethyl)-5-vinyltetrahydrofuran-2-yl)pyrimidin-2(1H)-one]: the IC50 is more than 100 µM in test [1], more than 1 µM with THP1-Dual KO-TREX1 cells, more than 100 µM in test [2] and more than 100 µM with PC3 cells.

As to `[N-]=[N+]=N[C@]1(CO)O[C@@H](n2cnc3c(=O)[nH]c(N)nc32)C[C@@H]1O` [Compound 108, 2-amino-9-((2R,4S,5R)-5-azido-4-hydroxy-5-(hydroxymethyl)tetrahydro-furan-2-yl)-1,9-dihydro-6H-purin-6-one], the IC50 in test [1] was in the range of 10 to 50 µM; with THP1-Dual KO-TREX1 cells it was 0.25 to 1 µM; in test [2], 1 to 10 µM; with PC3 cells, 1 to 10 µM.

Regarding `C=C[C@]1(CO)O[C@@H](n2cnc3c(N)nc(F)nc32)[C@@H](F)[C@@H]1O` [Compound 80, (2R,3R,4S,5R)-5-(6-amino-2-fluoropurin-9-yl)-2-ethenyl-4-fluoro-2-(hydroxymethyl)oxolan-3-ol], the IC50 in test [1] was more than 100 µM; in the test with THP1-Dual KO-TREX1 cells it was more than 1 µM; in test [2] it was 50 to 100 µM; in the test on PC3 cells, more than 100 µM.

On to `C=C[C@]1(CO)O[C@@H](n2cnc3c(=O)[nH]c(N)nc32)C[C@@H]1O` [Compound 69], for which the IC50 is 1 to 10 µM in test [1], more than 1 µM with THP1-Dual KO-TREX1 cells, 1 to 10 µM in test [2] and 1 to 10 µM with PC3 cells.

Turning to `Nc1nc(=O)n([C@@H]2O[C@@](CO)(C3CC3)[C@@H](O)[C@@H]2F)cc1F` [Compound 122, 4-amino-1-[(2R,3S,4R,5R)-5-cyclopropyl-3-fluoro-4-hydroxy-5-(hydroxymethyl)oxolan-2-yl]-5-fluoropyrimidin-2-one], the IC50 in test [1] was more than 100 µM; in the test on THP1-Dual KO-TREX1 cells, more than 1 µM; in test [2] it was more than 100 µM; with PC3 cells it was more than 100 µM.

As for `[N-]=[N+]=N[C@]1(CO)O[C@@H](n2ccc(N)nc2=O)[C@@H](F)[C@@H]1O` [Compound 50, 4-amino-1-((2R,3S,4R,5R)-5-azido-3-fluoro-4-hydroxy-5-(hydroxymethyl)tetrahydrofuran-2-yl)pyrimidin-2(1H)-one], the IC50 in test [1] is less than 1 µM; with THP1-Dual KO-TREX1 cells, 0.25 to 1 µM; in test [2], less than 1 µM; with PC3 cells, less than 1 µM.

Take `C=C[C@]1(CO)O[C@@H](n2cnc3c(N)nc(F)nc32)C[C@@H]1O` [Compound 109, (2R,3S,5R)-5-(6-amino-2-fluoro-9H-purin-9-yl)-2-(hydroxymethyl)-2-vinyltetrahydrofuran-3-ol]: the IC50 in test [1] was 1 to 10 µM; in the test on THP1-Dual KO-TREX1 cells, more than 1 µM; in test [2] it was 1 to 10 µM; in the test with PC3 cells, 1 to 10 µM.

As to `C#C[C@]1(CO)O[C@@H](c2ccc3c(N)ncnn23)C[C@@H]1O` [Compound 37, (2R,3S,5R)-5-(4-aminopyrrolo[2,1-f][1,2,4]triazin-7-yl)-2-ethyny1-2-(hydroxymethyl)tetrahydro-furan-3-ol], the IC50 is 1 to 10 µM in test [1], more than 1 µM in the test with THP1-Dual KO-TREX1 cells, 1 to 10 µM in test [2] and 10 to 50 µM in the test on PC3 cells.

The values are drawn from patent publication US12187758B2 (ROME Therapeutics, Inc., priority 2022, dated 2025).
